# From patent publication US20200079766A1, “MONOCYCLIC OGA INHIBITOR COMPOUNDS” (Janssen Pharmaceutica NV, priority 2016, published 2020)
# How the values were obtained:
# [1] = target: T1, recombinant human Meningioma Expressed Antigen 5 (MGEA5), also referred to as O-GlcNAcase (OGA) (Homo sapiens, UniProt O60502); assay: OGA biochemical assay: inhibition of FM-GlcNAc hydrolysis, fluorescence; protocol A (10 nM OGA, 1 h) or protocol B (2 nM OGA, 6 h); conditions: Enzymatic protocol B (2 nM OGA, 6 h); for IC50: read-out: Enzymatic hOGA, pIC50 (converted)
# T1 construct: Full length OGA enzyme was purchased at OriGene (cat # TP322411); purchased OriGene TP322411
# T1 sequence (O60502 1-916): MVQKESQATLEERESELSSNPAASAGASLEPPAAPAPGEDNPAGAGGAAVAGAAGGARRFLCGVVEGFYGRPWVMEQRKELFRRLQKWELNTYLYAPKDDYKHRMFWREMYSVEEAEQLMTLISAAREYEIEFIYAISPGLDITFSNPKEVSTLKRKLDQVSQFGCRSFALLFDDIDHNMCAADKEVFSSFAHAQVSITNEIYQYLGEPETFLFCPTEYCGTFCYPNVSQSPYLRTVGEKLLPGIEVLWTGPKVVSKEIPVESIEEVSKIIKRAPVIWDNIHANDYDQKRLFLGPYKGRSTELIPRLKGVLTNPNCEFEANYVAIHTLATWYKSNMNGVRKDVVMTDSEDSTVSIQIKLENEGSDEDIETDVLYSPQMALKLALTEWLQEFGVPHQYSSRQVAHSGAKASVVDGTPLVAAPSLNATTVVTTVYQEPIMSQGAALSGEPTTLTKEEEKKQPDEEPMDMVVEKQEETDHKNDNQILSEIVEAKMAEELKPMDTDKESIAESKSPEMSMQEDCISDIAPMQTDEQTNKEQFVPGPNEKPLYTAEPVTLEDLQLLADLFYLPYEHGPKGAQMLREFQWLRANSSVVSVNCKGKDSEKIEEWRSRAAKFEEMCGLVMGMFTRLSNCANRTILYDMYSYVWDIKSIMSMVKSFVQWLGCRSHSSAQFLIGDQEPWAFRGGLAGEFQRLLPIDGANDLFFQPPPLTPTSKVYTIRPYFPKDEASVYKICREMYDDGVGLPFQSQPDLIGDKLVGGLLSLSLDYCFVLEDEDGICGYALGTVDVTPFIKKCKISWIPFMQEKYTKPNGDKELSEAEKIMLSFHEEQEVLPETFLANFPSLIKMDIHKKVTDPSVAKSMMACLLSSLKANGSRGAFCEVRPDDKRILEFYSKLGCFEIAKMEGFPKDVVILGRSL
# Procedure, shortened: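 Full-length human OGA in 200 mM citrate/phosphate pH 7.2 with 0.005% Tween-20, compound pre-incubated 60 min at RT, then 100 uM FM-GlcNAc (final); 10 nM enzyme for 1 h or 2 nM for 6 h at RT. Stopped with pH 11.0 carbonate; fluorescein read at ex 485/em 538 nm. IC50 and Hill coefficient from curve fit.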
# [2] = system: OGA in HEK293 cells inducible for P301L mutant human Tau (isoform 2N4R); assay: OGA cellular assay: immunocytochemical detection of O-GlcNAcylated proteins (CTD110.6 antibody) after 6 h incubation; format: cell-based; conditions: for Emax / EC50: Homo sapiens, HEK293, 6 h; for Emax / Cellular Emax (%): maximum = Thiamet G 200 uM; for EC50: read-out: Cellular hOGA, pEC50 (converted)
# Description: HEK293 cells inducible for P301L mutant human Tau (isoform 2N4R) were established at Janssen. Thiamet-G was used for both plate validation (high control) and as reference compound (reference EC50 assay validation). OGA inhibition is evaluated through the immunocytochemical (ICC) detection of O-GlcNAcylated proteins by the use of a monoclonal antibody (CTD110.6; Cell Signaling, #9875) detecting O-GlcNAcylated residues as previoulsy described (Dorfmueller et al. 2010 Chemistry & biology, 17:1250). Inhibition of OGA will result in an increase of O-GlcNAcylated protein levels resulting in an increased signal in the experiment. Cell nuclei are stained with Hoechst to give a cell culture quality control and a rough estimate of immediate compounds toxicity, if any. ICC pictures are imaged with a Perkin Elmer Opera Phenix plate microscope and quantified with the provided software Perkin Elmer Harmony 4.1.
# Cells were propagated in DMEM high Glucose (Sigma, # D5796) following standard procedures. 2 days before the cell assay cells are split, counted and seeded in Poly-D-Lysine (PDL) coated 96-wells (Greiner, #655946) plate at a cell density of 12,000 cells per cm^2 (4,000 cells per well) in 100 μl of Assay Medium (Low Glucose medium is used to reduce basal levels of GlcNAcylation) (Park et al. 2014 The Journal of biological chemistry 289:13519). At the day of compound test medium from assay plates was removed and replenished with 90 μl of fresh Assay Medium. 10 μl of compounds at a 10 fold final concentration were added to the wells. Plates were centrifuged shortly before incubation in the cell incubator for 6 hours. DMSO concentration was set to 0.2%. Medium is discarded by applying vacuum. For staining of cells medium was removed and cells washed once with 100 μl D-PBS (Sigma, # D8537). From next step onwards unless other stated assay volume was always 50 μl and incubation was performed without agitation and at room temperature. Cells were fixed in 50 μl of a 4% paraformaldehyde (PFA, Alpha aesar, #043368) PBS solution for 15 minutes at room temperature. […] Before analysis samples were washed 2 times manually for 5 minutes in ICC base buffer.
# Imaging is performed using Perkin Elmer Phenix Opera using a water 20× objective and recording 9 fields per well. Intensity readout at 488 nm is used as a measure of O-GlcNAcylation level of total proteins in wells. To assess potential toxicity of compounds nuclei were counted using the Hoechst staining. IC50-values are calculated using parametric non-linear regression model fitting. As a maximum inhibition Thiamet G at a 200 uM concentration is present on each plate. In addition, a concentration response of Thiamet G is calculated on each plate.
Compound,Emax [1],IC50 [1],Enzymatic Emax (%) [1],Enzymatic hOGA; pIC50 [1],Emax [2],EC50 [2],Cellular hOGA; pEC50 [2],Cellular Emax (%) [2]
CC(=O)Nc1ncc(CN2CCC(Cc3ncc(F)cc3F)C2)s1 (stereo not shown) [compound 75],,,99.3%,7.63,,,7.11,104.1%
CC(=O)Nc1ncc(CN2CCC(Cc3cc(C(F)(F)F)ccn3)C2)s1 (stereo not shown) [compound 53],,,99.4%,7.05,,,6.76,85.6%
CC(=O)Nc1ncc(CN2CCCC(COc3cc(C)nc(C)c3)C2)s1 (stereo not shown) [compound 20],101%,6.76 nM,,,111%,6.31 nM,,
CC(=O)Nc1ncc(CN2CC[C@H](Cc3ccnc(F)c3)C2)s1 [compound 56],101%,22.9 nM,,,90.3%,64.6 nM,,
CC(=O)Nc1ncc(CN2CC[C@H](Cc3cc(C(F)(F)F)cnc3C)C2)s1 [compound 51],98.3%,53.7 nM,,,93.5%,123 nM,,
"CC(=O)Nc1ncc(CN2CCC[C@H](Cc3cc(C)nc(C)n3)C2)s1 (single isomer, unassigned) [compound 25]",101%,1.82 nM,,,97.8%,9.77 nM,,
CC(=O)Nc1ncc(CN2CCC[C@@H](Cc3cc(C)nc(C)c3)C2)s1 [compound 29],102%,8.71 nM,,,108%,56.2 nM,,
"Cc1cc(CC2CCCN(C(C)c3ccc4sc(C)nc4c3)C2)cc(C)n1 (single isomer, unassigned) [compound 118]",100%,46.8 nM,,,,,6.24,62.2%
"CC(=O)Nc1ncc(CN2CCCC(Oc3cc(C)cc(C)c3)C2)s1 (stereo not shown) [compound 13, reference compound]",98.7%,93.3 nM,,,92.1%,316 nM,,
Cc1cc(C2CCCN(C(C)c3ccc4nccnc4c3)C2)cc(C(F)(F)F)n1 (stereo not shown) [compound 144],101%,41.7 nM,,,42.8%,> 1000 nM,,
Cc1cc([C@H]2CCCN([C@@H](C)c3ccc4sc(C)nc4c3)C2)cc(C)n1 [compound 117],102%,12 nM,,,99.5%,97.7 nM,,
"CC(=O)Nc1ncc(CN2CCCC(c3cc(C)nc(C)c3)C2)s1 (single isomer, unassigned) [compound 130]",103%,9.12 nM,,,99%,13.2 nM,,
"CC(=O)Nc1ncc(CN2CCC[C@@H](Cc3cc(C)nc(C)n3)C2)s1 (single isomer, unassigned) [compound 26]",99.5%,26.9 nM,,,72.3%,525 nM,,
Cc1cc(C[C@H]2CCCN(Cc3ccc4sc(C)nc4c3)C2)cc(C)n1 [compound 145],101%,126 nM,,,39.4%,> 1000 nM,,
CC(=O)Nc1ncc(CN2CCC(COc3cc(C)nc(C)c3)C2)s1 (stereo not shown) [compound 89],100%,26.3 nM,,,72.4%,81.3 nM,,
CC(=O)Nc1ncc(CN2CC[C@H](Cc3cc(C)ncc3C(F)(F)F)C2)s1 [compound 73],,,101.4%,7.81,,,6.95,94%
CC(=O)Nc1ncc(CN2CC[C@H](Cc3ccc(OC(F)(F)F)cn3)C2)s1 [compound 49],97.9%,105 nM,,,89.6%,85.1 nM,,

# Second part, led by results:
Emax [1],IC50 [1],Enzymatic Emax (%) [1],Enzymatic hOGA; pIC50 [1],Compound,Emax [2],EC50 [2],Cellular hOGA; pEC50 [2],Cellular Emax (%) [2]
103%,46.8 nM,,,CC(=O)Nc1ncc(CN2CCC(Cc3cncnc3C)C2)s1 (stereo not shown) [compound 103],86.9%,132 nM,,
102%,21.4 nM,,,COc1cc(C[C@H]2CCN(Cc3cnc(NC(C)=O)s3)C2)cc(C(F)(F)F)n1 [compound 143],86.2%,60.3 nM,,
102%,2.82 nM,,,CC(=O)Nc1ncc(CN2CCC[C@H](Cc3ccc(F)c(C)n3)C2)s1 [compound 129],101%,20 nM,,
,,101.3%,7.30,CC(=O)Nc1ncc(CN2CCC(Cc3cc(C(F)(F)F)cc(C)n3)C2)s1 (stereo not shown) [compound 60],,,7.03,87.4%
,,101%,8.53,COc1cncc(CC2CCN(Cc3cnc(NC(C)=O)s3)C2)n1 (stereo not shown) [compound 66],,,7.43,100.6%
102%,4.47 nM,,,CC(=O)Nc1ncc(CN2CC[C@@H](Cc3cc(C)nc(C)c3)C2)s1 [compound 113],105%,11.2 nM,,
99.4%,77.6 nM,,,CC(=O)Nc1ncc(CN2CC[C@H](Cc3ccc(C(F)F)cn3)C2)s1 [compound 50],87.4%,55 nM,,
99.6%,12 nM,,,CC(=O)Nc1ncc(CN2CC[C@H](Cc3ccc(C)nc3C)C2)s1 [compound 71],94.8%,36.3 nM,,
102%,2.88 nM,,,CC(=O)Nc1ncc(CN2CCC[C@H](Cc3cncc(C)n3)C2)s1 [compound 127],88.5%,27.5 nM,,
99.1%,3.09 nM,,,CC(=O)Nc1ncc(CN2CC[C@H](Cc3cnc(C)c(C)c3)C2)s1 [compound 37],87.8%,18.2 nM,,
96.9%,40.7 nM,,,CC(=O)Nc1ncc(CN2CC[C@H](Cc3nnc(C)cc3C)C2)s1 [compound 47],61.6%,288 nM,,
102%,4.57 nM,,,CC(=O)Nc1ncc(CN2CC[C@H](Cc3cc(C)nc(C)c3)C2)s1 [compound 112],118%,17.8 nM,,
101%,3.16 nM,,,CC(=O)Nc1ncc(CN2CC[C@H](Cc3ncc(C)nc3C)C2)s1 [compound 58],90.6%,40.7 nM,,
101%,25.7 nM,,,CC(=O)Nc1ncc(CN2CC[C@H](Cc3cc(C)cnn3)C2)s1 [compound 59],80.3%,145 nM,,
